Data published in patent publication US9549560B2, “Pesticidal compositions and related methods” (DOW AGROSCIENCES LLC, priority 2013, dated 2017).

Key:
[1] = system: Green Peach Aphid (Myzus persicae); experiment: Bioassay for Green Peach Aphid (GPA) (MYZUPE), foliar spray on cabbage seedlings; assay type: in vivo; conditions: 72 h, 200 ppm foliar spray, graded after three days, Abbott corrected % control, read-out: % Control (or Mortality) rating, GPA
Description: Cabbage seedlings grown in 3-inch pots, with 2-3 small (3-5 cm) true leaves, were used as test substrate. The seedlings were infested with 20-50 GPA (wingless adult and nymph stages) one day prior to chemical application. Four pots with individual seedlings were used for each treatment. Test compounds (2 mg) were dissolved in 2 mL of acetone/methanol (1:1) solvent, forming stock solutions of 1000 ppm test compound. The stock solutions were diluted 5× with 0.025% Tween 20 in H2O to obtain the solution at 200 ppm test compound. A hand-held aspirator-type sprayer was used for spraying a solution to both sides of […] leaves until runoff. Reference plants (solvent check) were sprayed with the diluent only containing 20% by volume of acetone/methanol (1:1) solvent. Treated plants were held in a holding room for three days at approximately 25° C. and ambient relative humidity (RH) prior to grading. Evaluation was conducted by counting the number of live aphids per plant under a microscope. Percent control was measured by using Abbott's correction formula (W. S. Abbott, “A Method of Computing the Effectiveness of an Insecticide,” J. Econ. Entomol. 18 (1925), pp. 265-267) as follows. Corrected % Control=100*(X−Y)/X
X=No. of live aphids on solvent check plants and
Y=No. of live aphids on treated plants
(§1) Biological Data for Green Peach Aphid (GPA) (MYZUPE) and Sweetpotato Whitefly-crawler (WF) (BEMITA)” (See Table Section).

[2] = system: Sweetpotato Whitefly-Crawler (Bemisia tabaci); experiment: Insecticidal test for Sweetpotato Whitefly-Crawler (WF) (BEMITA) in foliar spray assay on cotton plants; assay type: in vivo; conditions: 216 h, 200 ppm foliar spray, graded after 9 days, Abbott corrected % control, read-out: % Control (or Mortality) rating, WF
Description: Cotton plants (Gossypium hirsutum) grown in 3-inch pots, with 1 small (4-5 cm) true leaves, were used as test substrate. The plants were infested with 200-400 whitefly eggs 4-5 days prior to chemical application. Four pots with individual plants were used for each treatment. Test compounds (2 mg) were dissolved in 1 mL of acetone solvent, forming stock solutions of 2000 ppm test compound. The stock solutions were diluted 10× with 0.025% Tween 20 in H2O (diluents) to obtain the solution at 200 ppm test compound. A hand-held aspirator-type sprayer was used for spraying a solution to both sides of cotton leaves until runoff. Reference plants (solvent check) were sprayed with the diluent only containing 10% by volume of acetone solvent. Treated plants were held in a holding room for 9 days at approximately 25° C. and ambient relative humidity (RH) prior to grading. Evaluation was conducted by counting the number of live 3-4 nymph stage per plant under a microscope. Percent control was measured by using Abbott's correction formula (W. S. Abbott, “A Method of Computing the Effectiveness of an Insecticide,” J. Econ. Entomol. 18 (1925), pp. 265-267) as follows. Corrected % Control=100*(X−Y)/X
X=No. of live nymphs on solvent check plants and
Y=No. of live nymphs on treated plants.
as §1

SMILES	mortality at 200 ppm [1]	mortality at 200 ppm [2]
C#CCNc1cn(-c2ccc[n+]([O-])c2)nc1Cl [CA1, 3-(3-Chloro-4-(prop-2-yn-1-ylamino)-1H-pyrazol-1-yl)pyridine 1-oxide]	0 to 80%	0 to 80%
CCNc1cn(-c2ccc[n+]([O-])c2)nc1C [CA2, 3-(4-(Ethylamino)-3-methyl-1H-pyrazol-1-yl)pyridine 1-oxide]	0 to 80%	80 to 100%
CNc1cn(-c2ccc[n+]([O-])c2)nc1Cl [CA3, 3-(3-Chloro-4-(methylamino)-1H-pyrazol-1-yl)pyridine 1-oxide]	80 to 100%	0 to 80%
CCNc1cn(-c2cc(F)c[n+]([O-])c2)nc1Cl [CA4, 3-(3-Chloro-4-(ethylamino)-1H-pyrazol-1-yl)-5-fluoropyridine 1-oxide]	0 to 80%	0 to 80%
CCNc1cn(-c2ccc[n+]([O-])c2)nc1Cl [Compound C1, 3-(3-chloro-4-(ethylamino)-1H-pyrazol-1-yl)pyridine 1-oxide]	0 to 80%	0 to 80%
CCN(C(=O)CC[S+]([O-])CCC(F)(F)F)c1cn(-c2ccc[n+]([O-])c2)nc1Cl (centres unmarked) [Compound F1, 3-(3-chloro-4-(N-ethyl-3-((3,3,3-trifluoropropyl)sulfinyl)propanamido)-1H-pyrazol-1-yl)pyridine 1-oxide]	80 to 100%	80 to 100%
CCN(C(=O)CCSC)c1cn(-c2ccc[n+]([O-])c2)nc1Cl [Compound F2, 3-(3-Chloro-4-(N-ethyl-3-(methylthio)propanamido)-1H-pyrazol-1-yl) pyridine 1-oxide]	80 to 100%	80 to 100%
CCN(C(=O)C(C)CS(C)(=O)=O)c1cn(-c2ccc[n+]([O-])c2)nc1C (centres unmarked) [Compound F4, 3-(4-(N-ethyl-2-methyl-3-(methylsulfonyl)propanamido)-3-methyl-1H-pyrazol-1-yl)pyridine-1-oxide]	80 to 100%	80 to 100%
CCN(C(=O)CCSCCC(F)(F)F)c1cn(-c2ccc[n+]([O-])c2)nc1Cl [Compound F5, 3-(3-chloro-4-(N-ethyl-3-((3,3,3-trifluoropropyl)thio)propanamido)-1H-pyrazol-1-yl)pyridine 1-oxide]	80 to 100%	80 to 100%
CCN(C(=O)C(C)C[S+](C)[O-])c1cn(-c2ccc[n+]([O-])c2)nc1Cl (centres unmarked) [Compound F6]	80 to 100%	80 to 100%
CCN(C(=O)C(C)[S+]([O-])CC(F)(F)F)c1cn(-c2ccc[n+]([O-])c2)nc1Cl (centres unmarked) [Compound F7, 3-(3-Chloro-4-(N-ethyl-2-((2,2,2-trifluoroethyl)sulfinyl)propanamido)-1H-pyrazol-1-yl)pyridine 1-oxide]	80 to 100%	0 to 80%
CCN(C(=O)C(C)S(=O)(=O)CC(F)(F)F)c1cn(-c2ccc[n+]([O-])c2)nc1Cl (centres unmarked) [Compound F8, 3-(3-Chloro-4-(N-ethyl-2-((2,2,2-trifluoroethyl)sulfonyl)propanamido)-1H-pyrazol-1-yl)pyridine 1-oxide]	80 to 100%	80 to 100%
CCN(C(=O)CC[S+](C)[O-])c1cn(-c2ccc[n+]([O-])c2)nc1Cl (centres unmarked) [Compound F9, 3-(3-Chloro-4-(N-ethyl-3-(methylsulfinyl)propanamido)-1H-pyrazol-1-yl) pyridine 1-oxide]	80 to 100%	80 to 100%
CCN(C(=O)C(C)CSC)c1cn(-c2ccc[n+]([O-])c2)nc1Cl (centres unmarked) [Compound F10, 3-(3-Chloro-4-(N-ethyl-2-methyl-3-(methylthio)propajamido)-1H-pyrazol-1-yl)pyridine 1-oxide]	80 to 100%	80 to 100%
CCN(C(=O)CCS(=O)(=O)CC1CC1(F)F)c1cn(-c2ccc[n+]([O-])c2)nc1Cl (centres unmarked) [Compound F11]	80 to 100%	80 to 100%
CCN(C(=O)C(C)CS(C)(=O)=O)c1cn(-c2ccc[n+]([O-])c2)nc1Cl (centres unmarked) [Compound F12, 3-(3-Chloro-4-(N-ethyl-2-methyl-3-(methylsulfonyl)propanamido)-1H-pyrazol-1-yl) 1-oxide]	80 to 100%	80 to 100%
CCN(C(=O)CCS(=O)(=O)CCC(F)(F)F)c1cn(-c2ccc[n+]([O-])c2)nc1Cl [Compound F13, 3-(3-chloro-4-(N-ethyl-3-((3,3,3-trifluoropropyl)sulfonyl)propanamido)-1H-pyrazol-1-yl)pyridine 1-oxide]	80 to 100%	80 to 100%
CN(C(=O)CCSCCC(F)(F)F)c1cn(-c2ccc[n+]([O-])c2)nc1Cl [Compound P1, 3-(3-chloro-4-(N-methyl-3-((3,3,3-trifluoropropyl)thio)propanamido)-1H-pyrazol-1-yl)pyridine 1-oxide]	80 to 100%	80 to 100%
CN(C(=O)CC[S+]([O-])CCC(F)(F)F)c1cn(-c2ccc[n+]([O-])c2)nc1Cl (centres unmarked) [Compound P2, 3-(3-chloro-4-(N-methyl-3-((3,3,3-trifluoropropyl)sulfinyl)propanamido)-1H-pyrazol-1-yl)pyridine 1-oxide]	80 to 100%	80 to 100%
C#CCN(C(=O)CCSCCC(F)(F)F)c1cn(-c2ccc[n+]([O-])c2)nc1Cl [Compound P9, 3-(3-Chloro-4-(N-(prop-2-yn-1-yl)-3-((3,3,3-trifluoropropyl)thio)propanamido)-1H-pyrazol-1-yl)pyridine 1-oxide]	80 to 100%	80 to 100%
C#CCN(C(=O)CC[S+]([O-])CCC(F)(F)F)c1cn(-c2ccc[n+]([O-])c2)nc1Cl (centres unmarked) [Compound P10, 3-(3-chloro-4-(N-(prop-2-yn-1-yl)-3-((3,3,3-trifluoropropyl)sulfinyl)propanamido)-1H-pyrazol-1-yl)pyridine 1-oxide]	80 to 100%	80 to 100%
CCN(C(=O)CCSCCC(F)(F)F)c1cn(-c2ccc[n+]([O-])c2)nc1C [Compound P18, 3-(4-(N-Ethyl-3-((3,3,3-trilluoropropyl)thio)propanamido)-3-methyl-1H-pyrazol-1-yl)pyridine 1-oxide]	80 to 100%	80 to 100%
CCN(C(=O)CC[S+]([O-])CCC(F)(F)F)c1cn(-c2ccc[n+]([O-])c2)nc1C (centres unmarked) [Compound P19, 3-(4-(N-Ethyl-3-((3,3,3-trilluoropropyl)sulfinyl)propanamido)-3-methyl-1H-pyrazol-1-yl)pyridine 1-oxide]	80 to 100%	80 to 100%
CCN(C(=O)CCSCCC(F)(F)F)c1cn(-c2cc(F)c[n+]([O-])c2)nc1Cl [Compound P36, 3-(3-Chloro-4-(N-ethyl-3-((3,3,3-trilluoropropyl)thio)propanamido)-1H-pyrazol-1-yl)-5-fluoropyridine 1-oxide]	80 to 100%	80 to 100%
CCN(C(=O)C(C)S(C)(=O)=O)c1cn(-c2ccc[n+]([O-])c2)nc1Cl (centres unmarked) [FA13, 3-(3-chloro-4-(N-ethyl-2-(methylsulfonyl)propanamido)-1H-pyrazol-1-yl)pyridine 1-oxide]	80 to 100%	
CC(C(=O)N(CC1CC1)c1cn(-c2ccc[n+]([O-])c2)nc1Cl)S(C)(=O)=O (centres unmarked) [FA14, 3-(3-chloro-4-(N-(cyclopropylmethyl)-2-(methylsulfonyl)propanamido)-1H-pyrazol-1-yl)pyridine 1-oxide]	80 to 100%	
